Assay [1] addresses T1, cPLA2 (Homo sapiens, UniProt P47712).
T1 sequence (P47712 1-749): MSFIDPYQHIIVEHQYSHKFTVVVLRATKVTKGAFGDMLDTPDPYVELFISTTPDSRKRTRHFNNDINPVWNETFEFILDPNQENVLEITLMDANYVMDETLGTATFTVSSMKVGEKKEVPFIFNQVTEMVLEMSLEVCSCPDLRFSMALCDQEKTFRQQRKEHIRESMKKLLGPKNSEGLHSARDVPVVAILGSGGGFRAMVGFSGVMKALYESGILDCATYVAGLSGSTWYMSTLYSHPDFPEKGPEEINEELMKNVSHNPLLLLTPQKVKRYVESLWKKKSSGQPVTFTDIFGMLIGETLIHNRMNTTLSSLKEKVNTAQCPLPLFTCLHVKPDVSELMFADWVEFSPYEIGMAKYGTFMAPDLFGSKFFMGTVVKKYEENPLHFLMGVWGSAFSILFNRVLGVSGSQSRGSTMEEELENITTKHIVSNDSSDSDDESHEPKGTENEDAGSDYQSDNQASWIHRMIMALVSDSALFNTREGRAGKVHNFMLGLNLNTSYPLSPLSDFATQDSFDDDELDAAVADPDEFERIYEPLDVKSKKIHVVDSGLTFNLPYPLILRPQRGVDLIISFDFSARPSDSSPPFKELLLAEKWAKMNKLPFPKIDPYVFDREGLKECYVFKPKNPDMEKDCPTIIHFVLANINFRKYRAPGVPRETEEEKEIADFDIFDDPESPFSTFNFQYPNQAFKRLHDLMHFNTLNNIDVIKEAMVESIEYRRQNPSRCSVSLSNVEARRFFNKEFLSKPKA
As to the kind of experiment: Soluble substrate assay (LysoPC). It counts as biochemical. Particulars: for IC50: NA = inhibitory activity not detected, read-out: IC50 (μM) Lyso PC. The method, then: (b) Soluble Substrate Assay (LysoPC)
The lipid was resuspended by vortexing 80 mM Hepes pH 7.5, 1 mM EDTA (1.2×final concentration). A typical assay consisted of lipid suspension (85 μl) to which was added consecutively the inhibitor (5 μl in DMSO) and cPLA2, 200 ng in 80 mM Hepes pH 7.5, 2 mM DTT and […]. This assay was conducted by either the manual assay or automated assay protocol described below.

Assay [2] concerns the target T1, cPLA2. As to the kind of experiment: Coumarine assay (7-hydroxycoumarinyl 6-heptenoate hydrolysis). Format: biochemical. Particulars: for IC50: 60 μM 7-hydroxycoumarinyl 6-heptenoate, read-out: IC50 (μM) Coumarine. As for the experimental part: 7-hydroxycoumarinyl 6-heptenoate was used as a monomeric substrate for cPLA2 as reported previously (Huang, Z. et al., 1994, Analytical Biochemistry 222, 110-115). Inhibitors were mixed with 200 μL assay buffer (80 mM Hepes, pH 7.5, 1 mM EDTA) containing 60 μM 7-hydroxycoumarinyl 6-heptenoate. The reaction was initiated by adding 4 μg cPLA2 in 50 μL assay buffer. Hydrolysis of the 7-hydroxycoumarinyl 6-heptenoate ester was monitored in a fluorometer by exciting at 360 nm and monitoring emission at 460 nm. Enzyme activity is proportional to the increasein emission at 460 nm per minute. In the presence of a cPLA2 inhibitor, the rate of increase is less.

Assay [3] relates to carrageenan-induced footpad edema. Briefly: Rat carrageenan-induced footpad edema test. It counts as in vivo. Particulars: iv, read-out: % inhibition of rat carrageenan-induced footpad edema. As for the experimental part: Compounds of the present invention were also tested for in vivo activity in a rat paw edema test according to the procedure described in Example 89.
Rat Carrageenan-Induced Footpad Edema Test
Each compound was suspended in 0.3 ml absolute ethanol, 0.1 ml Tween-80 and 2.0 ml Dulbecco's PBS (without calcium or magnesium). To this mixture, 0.1 ml 1N NaOH was added. After solution was complete, additional amounts of PBS were added to adjust the concentration to 1 mg/ml. All comounds remained in solution. Compounds were administered i.v. in a volumne of 5 ml/kg to male Sprague Dawley rats at the same time that edema was induced by injection of 0.05 ml of 1% Type IV carrageenan into the hind footpad. Footpad volume was measured before dosing with compound and 3 hours after dosing with carageenan.
For orientation: Carrageenan injected into the paw causes an acute inflammation.

Setting [4] is: 1 mg/ml, 5 ml/kg, male Sprague Dawley rats, footpad volume 3 hours after carrageenan.

pIC50: −log10 of the molar value. Read-outs that look alike come from different tables or passages of the source. A value given as a limit tells only on which side of the number the result lay.

Turning to `CCC(C)(C)c1ccc(OCC(=O)N2c3ccc(OCc4ccccc4)cc3CC2CSCC(=O)Nc2cccc(C(=O)O)c2)c(C(C)(C)CC)c1` (centres unmarked) [Example 17, 3-(2-(-5-Benzyloxy-1-(2,4-bis(1,1-dimethy)propyl)phenoxyacetyl)indolinyl)methylthioacetamidobenzoic Acid], the IC50 on cPLA2 [1] turned out to be 0.32 µM; on cPLA2 [2], 6 µM. Further, the inhibition in vivo at 1000 µg/mL, 5 mg/kg in assay [3] (setting [4]) was determined as 29.3%.

Consider `O=C(O)c1cc(NC(=O)c2cc3cc(OCc4ccccc4)ccc3n2Cc2ccc(C(F)(F)F)cc2C(F)(F)F)ccc1Oc1ccc(Cl)nc1` [Example 10], for which the figures for the pIC50 at cPLA2 [1] and at cPLA2 [2] were 6.48 and 4.55, respectively. The inhibition in vivo at 1000 µg/mL, 5 mg/kg in assay [3] (3 h) turned out to be 8.9%.

As for `CCC(C)(C)c1ccc(OCC(=O)N2c3ccc(OCc4ccccc4)cc3CC2CSCC(=O)N(C)c2cc(C(=O)O)ccc2OC)c(C(C)(C)CC)c1` (centres unmarked) [Example 70, 3-N-Methyl-(2-(-5-benzyloxy-1-(2,4-bis(1,1-dimethy)propyl)phenoxyacetyl)indolinyl)methylthioacetamido-4-methoxybenzoic Acid], the IC50 at cPLA2 [1] was 0.84 µM; on cPLA2 [2], 19 µM. For the same compound, in assay [3] (setting [4]), the inhibition in vivo at 1000 µg/mL, 5 mg/kg was 21.7%.

Consider `CCC(C)(C)c1ccc(OCC(=O)N2c3ccc(OCc4ccccc4)cc3CC2CSc2ccccc2C(=O)O)c(C(C)(C)CC)c1` (centres unmarked) [Example 67, 2-(2-(-5-Benzyloxy-1-(2,4-bis(1,1-dimethy)propyl)phenoxyacetyl)indolinyl)methylthiobenzoic Acid], for which the IC50 amounted to 0.22 µM on cPLA2 [1] and 10 µM on cPLA2 [2]. In assay [3] (setting [4]), the inhibition in vivo at 1000 µg/mL, 5 mg/kg was found to be 17.5%.

On to `O=C(O)c1ccccc1SCC1Cc2cc(OCc3ccccc3)ccc2N1Cc1ccc(COc2cc(C(F)(F)F)cc(C(F)(F)F)c2)cc1` (centres unmarked) [Example 77], for which the IC50 at cPLA2 [2] is 2.5 µM. Further, in assay [3] (setting [4]), the inhibition in vivo at 1000 µg/mL, 5 mg/kg came out at 13%.

Take `O=C(O)c1cccc(NC(=O)c2cc3cc(OCc4ccccc4)ccc3n2Cc2ccc(COc3cc(C(F)(F)F)cc(C(F)(F)F)c3)cc2)c1` [Example 8]: the pIC50 on cPLA2 [1] was 6.96; at cPLA2 [2] it was 5.42. Also, in assay [3] (3 h), the inhibition in vivo at 1000 µg/mL, 5 mg/kg worked out at 29%.

Take `O=C(CSCC1Cc2cc(OCc3ccc4ccccc4n3)ccc2N1C(=O)COc1cc(C(F)(F)F)cc(C(F)(F)F)c1)Nc1cc(C(F)(F)F)cc(C(F)(F)F)c1` (centres unmarked) [Example 50]: the values for the IC50 on cPLA2 [1] and on cPLA2 [2] were 4.4 µM and more than 50 µM, respectively. Besides, in assay [3] (setting [4]), the inhibition in vivo at 1000 µg/mL, 5 mg/kg is 11.7%.

By IC50 is commonly meant the midpoint of a concentration-inhibition curve. One may read the pIC50 as −log10 of the IC50, conventionally taken in molar units. A high value points to a low IC50.

The values above are taken from US6630496B1, “Inhibitors of phospholipase enzymes” (Genetics Institute LLC, priority 1996, dated 2003).
